Assay results from patent publication US12590095B2, “Crystalline forms of an orally available, selective kit and PDGFR kinase inhibitor” (Sandoz AG, priority 2019, dated 2026).

Assays:
Format in all cases: physicochemical
[1] = Gravimetric moisture sorption (GMS); conditions: for mass change during the sorption cycle: GMS, (25±0.1)° C.; for solid form by powder X-ray diffraction after the GMS experiment: after full sorption/desorption cycle 0-90% RH; for hygroscopicity: judged from GMS mass change
Method: Moisture sorption isotherms were recorded along with other samples with an SPSx-1μ moisture sorption analyzer (ProUmid, Ulm). The measurement cycle was started at ambient relative humidity (RH) of 25% (Form A) or 40% (Form B and Form Hy1). Relative humidity was then decreased to 5% in 5% steps, followed by a further decrease to 3% and to 0%. Afterwards RH was increased from 0% to 90% in a sorption cycle and decreased to 0% in a desorption cycle in 5% steps. Finally, the RH was increased to a relative humidity of 25% (Form A) or 40% (Form B and Form Hy1) in 5% steps. The time per step was set to a minimum of 2 hours and a maximum of 6 hours. If an equilibrium condition with a constant mass of +0.01% within 1 hour was reached before the maximum time for all examined samples the sequential humidity step was applied before the maximum time of 6 hours. If no equilibrium was achieved the consecutive humidity step was applied after the maximum time of 6 hours. The temperature was (25±0.1)° C.

[2] = Slurry experiments in aqueous isopropanol, form checked by PXRD; conditions: for form found by PXRD after slurry: aqueous isopropanol 3:1, 0° C.
Method: Form A and Form B of avapritinib were each slurried in aqueous isopropanol [4 mL, 3:1 (volume:volume)] at 0° C., 20° C. and 40° C., respectively. Samples were taken after 1 and 5 days and investigated by powder-X-ray diffraction.

[3] = Thermogravimetric analysis (TGA); conditions: for TGA mass loss: 10 K/min
Method: TGA was performed on a Mettler TGA/DSC 1 instrument. The samples (8.29 mg Form A, 8.11 mg Form B, 4.12 mg Form Hy1) were each weighed into a 100 microliter aluminum pan closed with an aluminum lid. The lid was automatically pierced at the beginning of the measurement. The samples were each heated from 25 to 250° C. at a rate of 10 K/min. Nitrogen (purge rate 50 mL/min) was used as purge gas.

[4] = Storage stability under various stress conditions, form checked by PXRD; conditions: 6 months
Excerpt: Avapritinib Form A, Form B and hydrate Form Hy1 were each subjected to the various stress conditions listed in Table 8 for 6 months and the samples were investigated by powder X-ray diffraction.

mass change during the sorption cycle ([1]; 0-90% RH)	solid form by powder X-ray diffraction after the GMS experiment [1]	hygroscopicity [1]	stability in slurry experiments ([2]; all applied conditions (0, 20, 40° C.; 1 and 5 days))	thermodynamic relationship of Form A and Form B ([2]; from slurry experiments and DSC at 1 K/min)	TGA mass loss ([3]; up to about 190° C.)	mass change during the sorption cycle ([1]; 10-90% RH)	TGA mass loss ([3]; from beginning of measurement until about 110° C.) [weight-%]	water corresponding to TGA mass loss ([3]; until about 110° C.)	form found by PXRD after stress test ([4]; 25° C./60% RH)	form found by PXRD after stress test ([4]; 30° C./65% RH)	form found by PXRD after stress test ([4]; 40° C./75% RH)	form found by PXRD after stress test ([4]; RT/97% RH)	conversion in slurry experiments ([2]; 0° C.)	conversion in slurry experiments ([2]; 20° C. and 40° C., already after 1 day)	form found by PXRD after slurry ([2]; 1 day)	form found by PXRD after slurry ([2]; 5 days)	TGA mass loss ([3]; up to about 180° C.)	SMILES
about 0.1 weight %	Form A	non-hygroscopic	remained stable	the stable form below its melting point	about 0.3 weight %													Cn1cc(-c2cc3c(N4CCN(c5ncc([C@@](C)(N)c6ccc(F)cc6)cn5)CC4)ncnn3c2)cn1 [Form A, (1S)-1-(4-fluorophenyl)-1-(2-[4-[6-(1-methyl-1H-pyrazol-4-yl)pyrrolo[2,1-f][1,2,4]triazin-4-yl]piperazin-1-yl]pyrimidin-5-yl)ethan-1-amine]
	Form Hy1	only slightly hygroscopic				about 1.4 weight %	3.5	approximately 1 mol equivalent	Hy1	Hy1	Hy1	Hy1						Cn1cc(-c2cc3c(N4CCN(c5ncc([C@@](C)(N)c6ccc(F)cc6)cn5)CC4)ncnn3c2)cn1 [Form Hy1]
about 0.3 weight %	Form B	only slightly hygroscopic											partially converted to Form A	fully converted to Form A	B + A	A + B	about 0.3 weight-%	Cn1cc(-c2cc3c(N4CCN(c5ncc([C@@](C)(N)c6ccc(F)cc6)cn5)CC4)ncnn3c2)cn1 [Form B, (1S)-1-(4-fluorophenyl)-1-(2-[4-[6-(1-methyl-1H-pyrazol-4-yl)pyrrolo[2,1-f][1,2,4]triazin-4-yl]piperazin-1-yl]pyrimidin-5-yl)ethan-1-amine]
